Measurements published in patent US3951746A, “Antibiotics and process for their manufacture” (Schering Corporation, priority 1975, dated 1976).
Where a name gives a salt, the structure may show the parent alone. Read-outs that look alike come from different tables or passages of the source.

Legend:
[1] = test system: gram positive and gram-negative bacteria; assay type: cell-based
yeast = assay type: cell-based
[2] = test system: Staphylococcus aureus ATCC 6538P; experiment: disc plate assay (microbiological assay); assay type: cell-based
bacteria = assay type: cell-based
[3] = test system: gram-positive and gram-negative organisms; design: species or system mice; conditions: mouse
[4] = test system: kanamycin resistant bacteria; assay type: cell-based
Escherichia coli Sc = experiment: MIC in vitro (Table VIII); conditions: for MIC: pH 7.4, read-out: Minimum Inhibitory Concentration - MIC
Aerobacter aerogenes 4 = experiment: MIC in vitro (Table VIII); conditions: for MIC: pH 7.4, read-out: Minimum Inhibitory Concentration - MIC
Candida albicans 411 = experiment: MIC in vitro (Table VIII); conditions: for MIC: pH 7.4, read-out: Minimum Inhibitory Concentration - MIC
Escherichia coli 5 = experiment: MIC in vitro (Table VIII); conditions: for MIC: pH 7.4, read-out: Minimum Inhibitory Concentration - MIC
Streptococcus pyogenes 6 = experiment: MIC in vitro (Table VIII); conditions: for MIC: pH 7.4, read-out: Minimum Inhibitory Concentration - MIC
Saccharomyces cerevisiae = experiment: MIC in vitro (Table VIII); conditions: for MIC: Saccharomyces cerevisiae, pH 7.4, read-out: Minimum Inhibitory Concentration - MIC
Proteus mirabilis MeF = experiment: MIC in vitro (Table VIII); conditions: for MIC: pH 7.4, read-out: Minimum Inhibitory Concentration - MIC
Salmonella paratyphi B1 = experiment: MIC in vitro (Table VIII); conditions: for MIC: pH 7.4, read-out: Minimum Inhibitory Concentration - MIC
Aerobacter aerogenes 3 = experiment: MIC in vitro (Table VIII)
[5] = test system: Pseudomonas aeruginosa 8689; experiment: MIC in vitro (Table VIII); conditions: for MIC: pH 7.4, read-out: Minimum Inhibitory Concentration - MIC
Salmonella paratyphi B2 = experiment: MIC in vitro (Table VIII); conditions: for MIC: pH 7.4, read-out: Minimum Inhibitory Concentration - MIC
Candida albicans 406 = experiment: MIC in vitro (Table VIII); conditions: for MIC: pH 7.4, read-out: Minimum Inhibitory Concentration - MIC
Candida albicans 401 = experiment: MIC in vitro (Table VIII); conditions: for MIC: pH 7.4, read-out: Minimum Inhibitory Concentration - MIC
[6] = test system: Klebsiella pneumoniae 17 KR; experiment: MIC in vitro (Table VIII); conditions: for MIC: pH 7.4, read-out: Minimum Inhibitory Concentration - MIC
[7] = test system: Klebsiella pneumoniae Ad KR; experiment: MIC in vitro (Table VIII); conditions: for MIC: pH 7.4, read-out: Minimum Inhibitory Concentration - MIC
Streptococcus pyogenes C [8] = experiment: MIC in vitro (Table VIII); conditions: for MIC: pH 7.4, read-out: Minimum Inhibitory Concentration - MIC
[9] = test system: Pseudomonas aeruginosa Miller; experiment: MIC in vitro (Table VIII); conditions: for MIC: pH 7.4, read-out: Minimum Inhibitory Concentration - MIC
Escherichia coli 19 = experiment: MIC in vitro (Table VIII); conditions: for MIC: pH 7.4, read-out: Minimum Inhibitory Concentration - MIC
[10] = test system: Staphylococcus aureus 209P; experiment: MIC in vitro (Table VIII); conditions: 24 hours; yeast beef broth (pH 7.4)
Proteus vulgaris 2 = experiment: MIC in vitro (Table VIII); conditions: for MIC: pH 7.4, read-out: Minimum Inhibitory Concentration - MIC
[11] = test system: Pseudomonas aeruginosa 8689; design: species or system mice; conditions: mouse, in vivo, sc
Escherichia coli 10536 = test system: Escherichia coli 10536; design: species or system mice; conditions: mouse, in vivo, sc
[12] = test system: Staphylococcus aureus Gray; design: species or system mice; conditions: mouse, in vivo, sc
Streptococcus pyogenes C [13] = test system: Streptococcus pyogenes C; design: species or system mice; conditions: mouse, in vivo, sc
[14] = 24 hours, yeast beef broth (pH 7.4)
[15] = 24 hours, yeast beef broth (pH 7.4), kanamycin-resistant

Compound: CN[C@@H]1[C@@H](O)[C@@H](O[C@@H]2[C@@H](O)[C@H](O[C@H]3OC(C(C)N)=CC[C@H]3N)[C@@H](N)C[C@H]2N)OC[C@]1(C)O (stereo partly shown) [Verdamicin I]
- antibacterial activity in vitro [1]: broad spectrum of antibacterial activity
- in vitro activity against yeast (yeast): does not exhibit any substantial in vitro activity against yeast
- assay potency in the gentamicin assay [2]: 1000 µg/mg
- dose response curve [2]: parallel to that of gentamicin
- cross resistance with gentamicin (bacteria): appears to be cross resistant with gentamicin
- antibacterial activity in vivo [3]: potent antibacterial agent
- pKa (physchem): 8.1
- activity against kanamycin resistant bacteria [4]: active against kanamycin resistant bacteria

Compound: Gentamicin Sulfate [reference compound]
- Minimum Inhibitory Concentration - MIC (Escherichia coli Sc; [14]): 0.75 µg/mL
- Minimum Inhibitory Concentration - MIC (Aerobacter aerogenes 4; [14]): 0.3 µg/mL
- Minimum Inhibitory Concentration - MIC (Candida albicans 411; [14]): > 50 µg/mL
- Minimum Inhibitory Concentration - MIC (Escherichia coli 5; [14]): 0.3 µg/mL
- Minimum Inhibitory Concentration - MIC (Streptococcus pyogenes 6; [14]): 1.0 µg/mL
- Minimum Inhibitory Concentration - MIC (Saccharomyces cerevisiae; [14]): > 50 µg/mL
- Minimum Inhibitory Concentration - MIC (Proteus mirabilis MeF; [14]): 0.3 µg/mL
- Minimum Inhibitory Concentration - MIC (Salmonella paratyphi B1; [14]): 1.0 µg/mL
- Minimum Inhibitory Concentration - MIC (Aerobacter aerogenes 3; [14]): 0.6 µg/mL
- Minimum Inhibitory Concentration - MIC [5, 14]: 0.3 µg/mL
- Minimum Inhibitory Concentration - MIC (Salmonella paratyphi B2; [14]): 0.5 µg/mL
- Minimum Inhibitory Concentration - MIC (Candida albicans 406; [14]): > 50 µg/mL
- Minimum Inhibitory Concentration - MIC (Candida albicans 401; [14]): > 50 µg/mL
- Minimum Inhibitory Concentration - MIC [6, 15]: 0.3 µg/mL
- Minimum Inhibitory Concentration - MIC [7, 15]: 0.3 µg/mL
- Minimum Inhibitory Concentration - MIC (Streptococcus pyogenes C [8]; [14]): 3.0 µg/mL
- Minimum Inhibitory Concentration - MIC [9, 14]: 0.5 µg/mL
- Minimum Inhibitory Concentration - MIC (Escherichia coli 19; [14]): 0.3 µg/mL
- Minimum Inhibitory Concentration - MIC [10]: 0.1 µg/mL
- Minimum Inhibitory Concentration - MIC (Proteus vulgaris 2; [14]): 0.3 µg/mL

Compound: Gentamicin
- PD50 [11]: 1.7 mg/kg
- PD50 (Escherichia coli 10536): 1.7 mg/kg
- PD50 [12]: 2.4 mg/kg
- PD50 (Streptococcus pyogenes C [13]): 5.0 mg/kg

Compound: CN[C@@H]1[C@@H](O)[C@@H](O[C@@H]2[C@@H](O)[C@H](O[C@H]3OC(C(C)N)=CC[C@H]3N)[C@@H](N)C[C@H]2N)OC[C@]1(C)O (stereo partly shown) [Verdamicin I Sulfate]
- MIC (Escherichia coli Sc; 24 h): 0.3 µg/mL
- MIC (Escherichia coli Sc; 48 h): 0.75 µg/mL
- assay potency in the gentamicin assay ([2]; gentamicin assay): 674 µg/mg
- MIC (Aerobacter aerogenes 4; 24 h): 0.3 µg/mL
- MIC (Aerobacter aerogenes 4; 48 h): 0.3 µg/mL
- MIC (Candida albicans 411; 24 h): > 10 µg/mL
- MIC (Candida albicans 411; 48 h): > 10 µg/mL
- MIC (Escherichia coli 5; 24 h): 0.3 µg/mL
- MIC (Escherichia coli 5; 48 h): 0.75 µg/mL
- MIC (Streptococcus pyogenes 6; 24 h): 0.3 µg/mL
- MIC (Streptococcus pyogenes 6; 48 h): 0.75 µg/mL
- MIC (Saccharomyces cerevisiae; 24 h): > 10 µg/mL
- MIC (Saccharomyces cerevisiae; 48 h): > 10 µg/mL
- MIC (Proteus mirabilis MeF; 24 h): 0.3 µg/mL
- MIC (Proteus mirabilis MeF; 48 h): 0.3 µg/mL
- MIC (Salmonella paratyphi B1; 24 h): 0.3 µg/mL
- MIC (Salmonella paratyphi B1; 48 h): 0.75 µg/mL
- MIC (Aerobacter aerogenes 3; 24 h, pH 7.4, read-out: Minimum Inhibitory Concentration - MIC): 0.3 µg/mL
- MIC ([5]; 24 h): 0.075 µg/mL
- MIC ([5]; 48 h): 0.3 µg/mL
- MIC (Salmonella paratyphi B2; 24 h): 0.3 µg/mL
- MIC (Salmonella paratyphi B2; 48 h): 0.3 µg/mL
- MIC (Candida albicans 406; 24 h): > 10 µg/mL
- MIC (Candida albicans 406; 48 h): > 10 µg/mL
- MIC (Candida albicans 401; 24 h): > 10 µg/mL
- MIC (Candida albicans 401; 48 h): > 10 µg/mL
- MIC ([6]; 24 h): 0.3 µg/mL
- MIC ([6]; 48 h): 0.3 µg/mL
- MIC ([7]; 24 h): 0.3 µg/mL
- MIC ([7]; 48 h): 0.3 µg/mL
- MIC (Streptococcus pyogenes C [8]; 24 h): 0.75 µg/mL
- MIC (Streptococcus pyogenes C [8]; 48 h): 3 µg/mL
- MIC ([9]; 24 h): 0.75 µg/mL
- MIC ([9]; 48 h): 0.75 µg/mL
- MIC (Escherichia coli 19; 24 h): 0.3 µg/mL
- MIC (Escherichia coli 19; 48 h): 0.3 µg/mL
- MIC (Proteus vulgaris 2; 24 h): 0.3 µg/mL
- MIC (Proteus vulgaris 2; 48 h): 0.3 µg/mL
